Experimental data published in patent US9681664B2, “Macrocyclic picolinamides as fungicides” (Dow Agrosciences LLC, priority 2012, dated 2017).
Read-outs that look alike come from different tables or passages of the source.

Legend:
Format in all cases: in vivo
[1] = test system: Puccinia triticina; Synonym: Puccinia recondite f. sp. tritici; experiment: Wheat brown rust (PUCCRT) disease control on wheat seedlings; conditions: Puccinia triticina, Wheat Brown Rust, low volume application, 121.5 g/H
Procedure, shortened: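 Yuma wheat grown to first fully emerged leaf was inoculated with Puccinia triticina spore suspension either before or after fungicide treatment, held overnight at 22° C. and 100% RH in darkness, then kept at 24° C. Fungicide applied by booth sprayer to run-off (acetone/water, 110 ppm Triton X-100) or as EC by track spray.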

Cercospora beticola = experiment: Leaf spot of sugar beets (CERCBE) disease control; conditions: 24 h, 1 Day Protectant, high volume, read-out: Disease Control CERCBE 1 DP
Procedure: Technical grades of materials were dissolved in acetone, which were then mixed with nine volumes of water containing 110 ppm Triton X-100. The fungicide solutions were applied onto wheat seedlings using an automated booth sprayer to run-off. All sprayed plants were allowed to air dry prior to further handling. All fungicides were evaluated using the aforementioned method for their activity vs. all target diseases. Wheat leaf blotch and brown rust activity were also evaluated using track spray applications, in which case the fungicides were formulated as EC formulations, containing 0.1% Trycol 5941 in the spray solutions. Sugar beet plants (variety HH88) were grown in soil-less Metro mix and trimmed regularly to maintain a uniform plant size prior to test. Plants were inoculated with a spore suspension 24 hr after fungicide treatments. Inoculated plants were kept in a dew chamber at 22° C. for 48 hr then incubated in a greenhouse set at 24° C. under a clear plastic hood with bottom ventilation until disease symptoms were fully expressed. Fungicide formulation, application and disease assessment on the sprayed leaves followed the procedures as described in the Example A.

Rhyncosporium secalis = experiment: Barley scald (RHYNSE) disease control; conditions: 24 h, High volume application, 1 Day Protectant, read-out: RHYNSE 1 DP disease control
Procedure: Technical grades of materials were dissolved in acetone, which were then mixed with nine volumes of water containing 110 ppm Triton X-100. The fungicide solutions were applied onto wheat seedlings using an automated booth sprayer to run-off. All sprayed plants were allowed to air dry prior to further handling. All fungicides were evaluated using the aforementioned method for their activity vs. all target diseases. Wheat leaf blotch and brown rust activity were also evaluated using track spray applications, in which case the fungicides were formulated as EC formulations, containing 0.1% Trycol 5941 in the spray solutions. Barley seedlings (variety Harrington) were propagated in soil-less Metro mix, with each pot having 8 to 12 plants, and used in the test when first leaf was fully emerged. Test plants were inoculated by an aqueous spore suspension of Rhyncosporium secalis 24 hr after fungicide treatments. After inoculation the plants were kept in a dew room at 20° C. with 100% relative humidity for 48 hr. The plants were then transferred to a greenhouse set at 20° C. for disease to develop. Fungicide formulation, application and disease assessment on the sprayed leaves followed the procedures as described in the Example A.

[2] = test system: Magnaporthe grisea; Anamorph: Pyricularia oryzae; experiment: whole plant or invertebrate; conditions: 24 h, read-out: PYRIOR 1 DP disease control
Alternaria solani = experiment: Tomato early blight (ALTESO) disease control; conditions: 24 h, 1 Day Protectant, high volume, read-out: Disease Control ALTESO 1 DP
Procedure: Technical grades of materials were dissolved in acetone, which were then mixed with nine volumes of water containing 110 ppm Triton X-100. The fungicide solutions were applied onto wheat seedlings using an automated booth sprayer to run-off. All sprayed plants were allowed to air dry prior to further handling. All fungicides were evaluated using the aforementioned method for their activity vs. all target diseases. Wheat leaf blotch and brown rust activity were also evaluated using track spray applications, in which case the fungicides were formulated as EC formulations, containing 0.1% Trycol 5941 in the spray solutions. Tomato plants (variety Outdoor girl) were propagated in soil-less Metro mix, with each pot having one plant, and used when 12 to 14 days old. Test plants were inoculated with an aqueous spore suspension of Alternaria solani 24 hr after fungicide treatments. After inoculation the plants were kept in 100% relative humidity (one day in a dark dew chamber followed by two to three days in a lighted dew chamber at 20° C.) to permit spores to germinate and infect the leaf. The plants were then transferred to a growth room at 22° C. for disease to develop. Fungicide formulation, application and disease assessment on the sprayed leaves followed the procedures as described in the Example A.

[3] = test system: Glomerella lagenarium; Anamorph: Colletotrichum lagenarium; experiment: Cucumber anthracnose (COLLLA) disease control; conditions: Colletotrichum orbiculare, 24 h, 1 Day Protectant, high volume, read-out: Disease Control COLLLA 1 DP
Procedure, shortened: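 Compounds were dissolved in acetone, diluted with nine volumes of water containing 110 ppm Triton X-100 and sprayed to run-off on 12–14-day-old Bush Pickle cucumber seedlings. Plants were spore-inoculated 24 hr later and held 48 hr at 22 °C and 100% RH, then in a 22 °C growth room. Disease on sprayed leaves was then assessed.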

[4] = 24 h, 1 Day Protectant, read-out: Disease Control PUCCRT 1 DP 121.5 g/H
[5] = 72 h, 3 Day Curative, read-out: Disease Control PUCCRT 3 DC 121.5 g/H

COc1ccnc(C(=O)N[C@H]2CCC[C@H](Oc3ccccc3)[C@@H](OC)[C@H](C)OC2=O)c1OCOC(C)=O [F252]
80 to 100%: pest or weed control at 121.5 g/ha [1, 4] | pest or weed control at 121.5 g/ha [1, 5] | pest or weed control at 100 ppm (Rhyncosporium secalis) | pest or weed control at 100 ppm [2] | pest or weed control at 100 ppm [3]
0 to 80%: pest or weed control at 100 ppm (Cercospora beticola) | pest or weed control at 100 ppm (Alternaria solani)

C=C(C)CO[C@H]1CCC[C@H](NC(=O)c2nccc(OC)c2OCOC(=O)C(C)C)C(=O)O[C@@H](C)[C@@H]1OC [F253]
0 to 80%: pest or weed control at 100 ppm (Rhyncosporium secalis) | pest or weed control at 100 ppm (Alternaria solani)
80 to 100%: pest or weed control at 121.5 g/ha [1, 4] | pest or weed control at 121.5 g/ha [1, 5] | pest or weed control at 100 ppm [2] | pest or weed control at 100 ppm [3]
< 0%: pest or weed control at 100 ppm (Cercospora beticola)

COc1ccnc(C(=O)N[C@H]2CCC[C@H](OCC(C)C)[C@@H](OC)[C@H](C)OC2=O)c1OCOC(=O)C(C)C [F254]
80 to 100%: pest or weed control at 121.5 g/ha [1, 4] | pest or weed control at 121.5 g/ha [1, 5] | pest or weed control at 100 ppm (Rhyncosporium secalis) | pest or weed control at 100 ppm [2] | pest or weed control at 100 ppm [3]
0 to 80%: pest or weed control at 100 ppm (Cercospora beticola) | pest or weed control at 100 ppm (Alternaria solani)

COc1ccnc(C(=O)N[C@H]2CCC[C@H](Oc3ccccc3)[C@@H](OC)[C@H](C)OC2=O)c1OCOC(=O)C(C)C [F255]
0 to 80%: pest or weed control at 100 ppm (Cercospora beticola) | pest or weed control at 100 ppm (Alternaria solani)
80 to 100%: pest or weed control at 121.5 g/ha [1, 4] | pest or weed control at 121.5 g/ha [1, 5] | pest or weed control at 100 ppm (Rhyncosporium secalis) | pest or weed control at 100 ppm [2] | pest or weed control at 100 ppm [3]
